{"source": "patent US20260200897A1", "about": "“4-((5-(3-(4-(PYRIDIN-2-YL)CYCLOPENTYL)-1H-PYRAZOL-3-YL)AMINO)-BENZENESULFONAMIDE DERIVATIVES AND SIMILAR COMPOUNDS AS CDK INHIBITORS FOR THE TREATMENT OF CANCER” (BeOne Medicines I GmbH, priority 2023, published 2026)", "key": {"[1]": {"target": "CDK2/Cyclin E1 (Homo sapiens, UniProt P24941)", "assay": "CDK2/Cyclin E1 TR-FRET biochemical assay, 0.060 mM ATP", "details": "0.15 μM Rb (Ser780)-biotin substrate, 120 min reaction, Table 1", "procedure": "(§1) Compounds disclosed herein were tested for inhibition of CDK2/Cyclin E1 or CDK1/Cyclin B1 kinase in an assay based on the time-resolved fluorescence-resonance energy transfer (TR-FRET) methodology. The assay was carried out in 384-well low volume black plates in a reaction mixture containing CDK2/Cyclin E1 or CDK1/Cyclin B1, 0.060 mM ATP for CDK2/Cyclin E1 or 0.015 mM ATP for CDK1/Cyclin B1, 0.15 μM Rb (Ser780)-biotin substrate and 0-10 μM compound in buffer containing 50 mM HEPES pH7.0, 0.02% NaN3, 0.01% BSA, 0.1 mM Orthovanadate, 50 mM MgCl2, 1 mM DTT and 0.005% Tween-20. The kinase was incubated with compound for 60 minutes at room temperature and the reaction was initiated by the addition of ATP and Rb (Ser780)-biotin substrate. After reaction at room temperature for 120 minutes, an equal volume of stop/detection solution was added according to the manufacture's instruction (Cisbio Bioassays). The stop/detection solution contained Streptavidin-XL665 and Anti-pRb (Ser780) mAb-Eu Cryptate in Detection buffer (Cisbio Bioassays). Plates were incubated at room temperature for 60 minutes, and the TR-FRET signals (ex337 nm, em665 nm/620 nm) were recorded on a PHERAstar FSX plate reader (BMG Labtech). The inhibition percentage of CDK2/Cyclin E1 or CDK1/Cyclin B1 kinase activity in presence of increasing concentrations of compounds was calculated based on the ratio of fluorescence at 665 nm to that at 620 nm. The IC50 for each compound was derived from fitting the data to the four-parameter logistic equation by Dotmatics."}, "[2]": {"target": "CDK1/Cyclin B1 (Homo sapiens, UniProt P06493)", "sequence (P06493 whole entry)": "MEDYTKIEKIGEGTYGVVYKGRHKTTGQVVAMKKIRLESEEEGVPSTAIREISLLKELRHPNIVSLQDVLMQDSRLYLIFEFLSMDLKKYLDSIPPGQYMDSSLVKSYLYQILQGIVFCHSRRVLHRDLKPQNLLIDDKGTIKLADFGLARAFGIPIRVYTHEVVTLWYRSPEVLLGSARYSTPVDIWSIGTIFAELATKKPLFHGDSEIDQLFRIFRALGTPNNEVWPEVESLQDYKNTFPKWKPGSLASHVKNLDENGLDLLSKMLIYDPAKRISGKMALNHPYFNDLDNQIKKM", "sequence (P14635 whole entry partner)": "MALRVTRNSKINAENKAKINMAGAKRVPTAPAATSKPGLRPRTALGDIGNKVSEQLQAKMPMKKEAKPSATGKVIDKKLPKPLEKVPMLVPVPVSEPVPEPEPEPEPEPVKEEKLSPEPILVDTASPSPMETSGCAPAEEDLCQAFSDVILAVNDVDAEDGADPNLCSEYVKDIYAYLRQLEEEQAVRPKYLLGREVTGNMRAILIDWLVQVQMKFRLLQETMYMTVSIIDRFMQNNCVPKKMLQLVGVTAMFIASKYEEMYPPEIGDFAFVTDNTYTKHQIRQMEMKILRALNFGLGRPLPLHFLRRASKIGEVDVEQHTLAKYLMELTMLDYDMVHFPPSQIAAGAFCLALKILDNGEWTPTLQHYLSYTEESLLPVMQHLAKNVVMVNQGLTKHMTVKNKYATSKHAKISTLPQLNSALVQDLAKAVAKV", "assay": "CDK1/Cyclin B1 TR-FRET biochemical assay, 0.015 mM ATP", "details": "0.15 μM Rb (Ser780)-biotin substrate, 120 min reaction, Table 1", "procedure": "as §1"}}}
{"smiles": "CC(C)(C)c1ncccc1O[C@@H]1CC[C@H](c2cc(Nc3ccc4c(c3F)CNS4(=O)=O)n[nH]2)C1", "note": "(relative stereo) [Example 45, cis-5-((5-(3-((2-(tert-butyl)pyridin-3-yl)oxy)cyclopentyl)-1H-pyrazol-3-yl)amino)-4-fluoro-2,3-dihydrobenzo[d]isothiazole 1,1-dioxide]", "values": [{"measurement": "IC50", "setting": "[1]", "result": 0.764, "unit": "µM"}, {"measurement": "IC50", "setting": "[2]", "result": 7.12, "unit": "µM"}]}
{"smiles": "O=S1(=O)NCc2c1ccc(Nc1cc([C@H]3CC[C@@H](Oc4ccccn4)C3)[nH]n1)c2F", "note": "(relative stereo) [Example 46, cis-4-fluoro-5-((5-(3-(pyridin-2-yloxy)cyclopentyl)-1H-pyrazol-3-yl)amino)-2,3-dihydrobenzo[d]isothiazole 1,1-dioxide]", "values": [{"measurement": "IC50", "setting": "[1]", "result": 0.419, "unit": "µM"}, {"measurement": "IC50", "setting": "[2]", "result": 7.45, "unit": "µM"}]}
{"smiles": "CC(C)(C)c1ccnc(O[C@@H]2CC[C@H](c3cc(Nc4ccc5c(c4F)CNS5(=O)=O)n[nH]3)C2)c1", "note": "(relative stereo) [Example 47, cis-5-((5-(3-((4-(tert-butyl)pyridin-2-yl)oxy)cyclopentyl)-1H-pyrazol-3-yl)amino)-4-fluoro-2,3-dihydrobenzo[d]isothiazole 1,1-dioxide]", "values": [{"measurement": "IC50", "setting": "[1]", "result": 3.44, "unit": "µM"}, {"measurement": "IC50", "setting": "[2]", "result": "> 10", "unit": "µM"}]}
{"smiles": "O=S1(=O)NCc2c1ccc(Nc1cc([C@H]3CC[C@@H](Oc4ccon4)C3)[nH]n1)c2F", "note": "(relative stereo) [Example 48, cis-4-fluoro-5-((5-(3-(isoxazol-3-yloxy)cyclopentyl)-1H-pyrazol-3-yl)amino)-2,3-dihydrobenzo[d]isothiazole 1,1-dioxide]", "values": [{"measurement": "IC50", "setting": "[1]", "result": 0.038, "unit": "µM"}, {"measurement": "IC50", "setting": "[2]", "result": 0.425, "unit": "µM"}]}
{"smiles": "O=c1ccon1[C@H]1CC[C@@H](c2cc(Nc3ccc4c(c3F)CNS4(=O)=O)n[nH]2)C1", "note": "(relative stereo) [Example 49, cis-2-(3-(3-((4-fluoro-1,1-dioxido-2,3-dihydrobenzo[d]isothiazol-5-yl)amino)-1H-pyrazol-5-yl)cyclopentyl)isoxazol-3 (2H)-one]", "values": [{"measurement": "IC50", "setting": "[1]", "result": 0.478, "unit": "µM"}, {"measurement": "IC50", "setting": "[2]", "result": 2.56, "unit": "µM"}]}
{"smiles": "O=S1(=O)NCc2c1ccc(Nc1cc([C@H]3CC[C@@H](Oc4ccsn4)C3)[nH]n1)c2F", "note": "(relative stereo) [Example 50, cis-4-fluoro-5-((5-(3-(isothiazol-3-yloxy)cyclopentyl)-1H-pyrazol-3-yl)amino)-2,3-dihydrobenzo[d]isothiazole 1,1-dioxide]", "values": [{"measurement": "IC50", "setting": "[1]", "result": 0.033, "unit": "µM"}, {"measurement": "IC50", "setting": "[2]", "result": 1.32, "unit": "µM"}]}
{"smiles": "O=c1ccsn1[C@H]1CC[C@@H](c2cc(Nc3ccc4c(c3F)CNS4(=O)=O)n[nH]2)C1", "note": "(relative stereo) [Example 51, cis-2-(3-(3-((4-fluoro-1,1-dioxido-2,3-dihydrobenzo[d]isothiazol-5-yl)amino)-1H-pyrazol-5-yl)cyclopentyl)isothiazol-3 (2H)-one]", "values": [{"measurement": "IC50", "setting": "[1]", "result": 0.214, "unit": "µM"}, {"measurement": "IC50", "setting": "[2]", "result": 1.77, "unit": "µM"}]}
{"smiles": "C=C(C)c1csnc1O[C@@H]1CC[C@H](c2cc(Nc3ccc4c(c3F)CNS4(=O)=O)n[nH]2)C1", "note": "(relative stereo) [Example 52, cis-4-fluoro-5-((5-(3-((4-(prop-1-en-2-yl)isothiazol-3-yl)oxy)cyclopentyl)-1H-pyrazol-3-yl)amino)-2,3-dihydrobenzo[d]isothiazole 1,1-dioxide]", "values": [{"measurement": "IC50", "setting": "[1]", "result": 0.0071, "unit": "µM"}, {"measurement": "IC50", "setting": "[2]", "result": 0.121, "unit": "µM"}]}
{"smiles": "O=S1(=O)NCc2c1ccc(Nc1cc([C@H]3CC[C@@H](Oc4nscc4C4CC4)C3)[nH]n1)c2F", "note": "(relative stereo) [Example 53, cis-5-((5-(3-((4-cyclopropylisothiazol-3-yl)oxy)cyclopentyl)-1H-pyrazol-3-yl)amino)-4-fluoro-2,3-dihydrobenzo[d]isothiazole 1,1-dioxide]", "values": [{"measurement": "IC50", "setting": "[1]", "result": 0.0041, "unit": "µM"}, {"measurement": "IC50", "setting": "[2]", "result": 0.118, "unit": "µM"}]}
{"smiles": "O=c1c(C2CC2)csn1[C@H]1CC[C@@H](c2cc(Nc3ccc4c(c3F)CNS4(=O)=O)n[nH]2)C1", "note": "(relative stereo) [Example 54, cis-4-cyclopropyl-2-(3-(3-((4-fluoro-1,1-dioxido-2,3-dihydrobenzo[d]isothiazol-5-yl)amino)-1H-pyrazol-5-yl)cyclopentyl)isothiazol-3 (2H)-one]", "values": [{"measurement": "IC50", "setting": "[1]", "result": 0.049, "unit": "µM"}, {"measurement": "IC50", "setting": "[2]", "result": 0.418, "unit": "µM"}]}
